The values below are quoted from earlier work in patent publication US11766396B2, “Kit and method for dyeing keratinous material by means of aminosilicone and a chromophoric compound” (Henkel AG & Co. KGaA, priority 2019, dated 2023).

The conditions of data set [1]: 25° C.
For data set [2] the following is noted: 5% solution in water.

As for `O=C([O-])c1c(Cl)c(Cl)c(Cl)c(Cl)c1-c1c2c(Br)cc(=O)c(Br)c-2oc2c(Br)c(O)cc(Br)c12.O=C([O-])c1c(Cl)c(Cl)c(Cl)c(Cl)c1-c1c2c(Br)cc(=O)c(Br)c-2oc2c(Br)c(O)cc(Br)c12.[Na+].[Na+]` [Acid Red 92, disodium salt of 3,4,5,6-tetrachloro-2-(1,4,5,8-tetrabromo-6-hydroxy-3-oxoxanthen-9-yl)benzoic acid], in data set [1], the solubility in water result is listed as “greater than 10 g/L”. As for `Nc1cc(S(=O)(=O)[O-])cc2cc(S(=O)(=O)[O-])c(N=Nc3ccccc3)c(O)c12.[Na+].[Na+]` [Acid Red 33, diantrium salt of 5-amino-4-hydroxy-3-(phenylazo)-naphthalene-2,7-disulphonate], the solubility in water in data set [1] is 2500 µg/mL. With `O=C([O-])C1=NN(c2ccc(S(=O)(=O)[O-])cc2)C(=O)C1N=Nc1ccc(S(=O)(=O)[O-])cc1.[Na+].[Na+].[Na+]` (centres unmarked) [Acid Yellow 23, trisodium salt of 4,5-dihydro-5-oxo-1-(4-sulfophenyl)-4-((4-sulfophenyl)azo)-1H-pyrazole-3-carboxylic acid], the “solubility in water” value in data set [1] is “highly soluble”. On to `O=S(=O)([O-])c1ccc(N=Nc2c(O)ccc3ccccc23)cc1.[Na+]` [Acid Orange 7, sodium salt of 4-[(2-hydroxy-1-naphthyl)azo]benzene sulphonate], for which the solubility in water result in data set [1] was “more than 7 g/L”. Consider `O=P([O-])(O)O.[K+]` [Potassium dihydrogen phosphate], for which the “pH value of solution in water” value in data set [2] is listed as 4.4.
